Data on 27 molecules can be found in patent publication US10098350B2, “Fungicidal amides” (E. I. DU PONT DE NEMOURS AND COMPANY, priority 2013, dated 2018).

Common to all, as to type: in vivo
Test [1] deals with Puccinia recondite f. sp. tritici. The experiment in a line: Test D: wheat seedlings sprayed with test suspension, inoculated with Puccinia recondite f. sp. tritici (wheat leaf rust), visual disease rating. An excerpt:
(§1) General protocol for preparing test suspensions for Tests A-E: the test compounds were first dissolved in acetone in an amount equal to 3% of the final volume and then suspended at the desired concentration (in ppm) in acetone and purified water (50/50 mix by volume) containing 250 ppm of the surfactant Trem® 014 (polyhydric alcohol esters). The resulting test suspensions were then used in Tests A-E. Samples were applied to plants at either a 10 ppm (**), 40 ppm, 50 ppm (*) or 200 ppm (#) test solution to the point of run-off on the test plants with the equivalent of a rate of 40 g ai/ha, 160 g ai/ha, 200 g ai/ha, or 800 g ai/ha, respectively.
The test suspension was sprayed to the point of run-off on wheat seedlings. The following day the seedlings were inoculated with a spore suspension of Puccinia recondite f. sp. tritici; (the causal agent of wheat leaf rust) and incubated in a saturated atmosphere at 20° C. for 24 h, and then moved to a growth chamber at 20° C. for 6 days, after which time visual disease ratings were made.
(§2) Results for Tests A-E are given in Table A. In the Table, a rating of 100 indicates 100% disease control and a rating of 0 indicates no disease control (relative to the controls). A dash (-) indicates no test results.

The test system of another test is Septoria tritici. The experiment in a line: Test C: wheat seedlings sprayed with test suspension, inoculated with Septoria tritici (wheat leaf blotch), visual disease rating.
Excerpt: as §1
The test suspension was sprayed to the point of run-off on wheat seedlings. The following day the seedlings were inoculated with a spore suspension of Septoria tritici (the causal agent of wheat leaf blotch) and incubated in a saturated atmosphere at 24° C. for 48 h, and then moved to a growth chamber at 20° C. for 21 days, after which time visual disease ratings were made.
as §2

Test [2] relates to Erysiphe graminis f. sp. tritici. The experiment in a line: Test E: wheat seedlings sprayed with test suspension, inoculated with Erysiphe graminis f. sp. tritici (wheat powdery mildew), visual disease rating.
Excerpt: as §1
The test suspension was sprayed to the point of run-off on wheat seedlings. The following day the seedlings were inoculated with a spore dust of Erysiphe graminis f. sp. tritici, (the causal agent of wheat powdery mildew) and incubated in a growth chamber at 20° C. for 7 or 8 days, after which time visual disease ratings were made.
as §2

Setting [3] is: Cmpd. No. marked '*' (other test rate; meaning of mark not shown).
Where [4] appears, read: Cmpd. No. marked '**' (other test rate; meaning of mark not shown).
Where [5] appears, read: Cmpd. No. unmarked, 100 = 100% disease control, 0 = no control relative to controls.

With `CC(c1cc(Cl)cc(-n2ccc(C(F)(F)F)n2)c1)N(C(=O)c1c(C(F)F)nn(C)c1F)C1CC1` (stereo not shown) [compound 54], the “Test D rating (% disease control)” value in test [1] (setting [3]) is reported as 99%. In the test with Septoria tritici (setting [3]), the “Test C rating (% disease control)” value is given as 96%. Further, in test [2] (setting [3]), the “Test E rating (% disease control)” value worked out at 93%.
Consider `CC(C)c1ccc(-n2ccc(C(F)(F)F)n2)cc1C(C)N(C(=O)c1cn(C)nc1C(F)F)C1CC1` (stereo not shown) [compound 82], for which the “Test D rating (% disease control)” value in test [1] (setting [3]) stood at 0%. For the same molecule, the “Test C rating (% disease control)” value in the test on Septoria tritici (setting [3]) amounted to 88%. In addition, the “Test E rating (% disease control)” value in test [2] (setting [3]) stood at 87%.
As for `Cn1cc(C(=O)N(Cc2cc(Cl)cc(-n3ccc(C(F)(F)F)n3)c2)C2CC2)c(C(F)F)n1` [compound 112], the “Test D rating (% disease control)” value in test [1] (setting [3]) came to 54%. Also, the “Test C rating (% disease control)” value in the test with Septoria tritici (setting [3]) turned out to be 94%. In addition, the “Test E rating (% disease control)” value in test [2] (setting [3]) was found to be 40%.
As for `CC(c1ncc(-n2cccn2)cc1Cl)N(C(=O)c1c(C(F)F)nn(C)c1F)C1CC1` (racemic) [compound 101], the “Test D rating (% disease control)” value in test [1] (setting [4]) is on record as 82%. In the test on Septoria tritici (setting [4]), the “Test C rating (% disease control)” value came to 96%. Moreover, the “Test E rating (% disease control)” value in test [2] (setting [4]) is 79%.
On to `Cn1cc(C(=O)N(Cc2cc(-n3ccc(C(F)(F)F)n3)ncc2Cl)C2CC2)c(C(F)F)n1` [compound 75], for which, in test [1] (setting [4]), the “Test D rating (% disease control)” value was found to be 45%. For the same molecule, the “Test C rating (% disease control)” value with Septoria tritici (setting [4]) came out at 24%. In test [2] (setting [4]), the “Test E rating (% disease control)” value was found to be 0%.
Regarding `CC(c1ncc(-n2ccc(C(F)(F)F)n2)cc1Cl)N(C(=O)c1c(C(F)F)nn(C)c1F)C1CC1` (stereo not shown) [compound 103], the “Test D rating (% disease control)” value in test [1] (setting [4]) stood at 98%. In the test on Septoria tritici (setting [4]), the “Test C rating (% disease control)” value is 98%. Also, the “Test E rating (% disease control)” value in test [2] (setting [4]) worked out at 94%.
Take `CC(c1ncc(-n2cc(Br)cn2)cc1Cl)N(C(=O)c1c(C(F)F)nn(C)c1F)C1CC1` (stereo not shown) [compound 78]: in test [1] (setting [4]), the “Test D rating (% disease control)” value amounted to 94%. Further, in the test with Septoria tritici (setting [4]), the “Test C rating (% disease control)” value amounted to 100%. In addition, the “Test E rating (% disease control)” value in test [2] (setting [4]) was found to be 92%.
In the case of `Cc1ccc(C(C)N(C(=O)c2c(C(F)F)nn(C)c2F)C2CC2)cc1-n1ccc(C(F)(F)F)n1` (stereo not shown) [compound 73], in test [1] (setting [5]), the “Test D rating (% disease control)” value is given as 85%. Further, in the test on Septoria tritici (setting [5]), the “Test C rating (% disease control)” value came to 99%. Moreover, the “Test E rating (% disease control)” value in test [2] (setting [5]) came out at 90%.
As to `C=C(C)c1ccc(-n2ccc(C(F)(F)F)n2)cc1C(C)N(C(=O)c1c(C(F)F)nn(C)c1F)C1CC1` (racemic) [compound 123], the “Test D rating (% disease control)” value in test [1] (setting [3]) was found to be 92%. The “Test C rating (% disease control)” value in the test on Septoria tritici (setting [3]) is reported as 100%. Besides, in test [2] (setting [3]), the “Test E rating (% disease control)” value turned out to be 93%.
For the molecule `Cc1cc(-n2ccc(C(F)(F)F)n2)cnc1CN(C(=O)c1c(C(F)F)nn(C)c1F)C1CC1` [compound 81], in test [1] (setting [4]), the “Test D rating (% disease control)” value was found to be 98%. The “Test C rating (% disease control)” value in the test on Septoria tritici (setting [4]) amounted to 94%. Besides, the “Test E rating (% disease control)” value in test [2] (setting [4]) is 81%.
With `CC(c1ncc(-n2ccc(-c3ccccc3)n2)cc1Cl)N(C(=O)c1c(C(F)F)nn(C)c1F)C1CC1` (racemic) [compound 90], in test [1] (setting [4]), the “Test D rating (% disease control)” value was 99%. The “Test C rating (% disease control)” value in the test with Septoria tritici (setting [4]) was 99%. For the same molecule, in test [2] (setting [4]), the “Test E rating (% disease control)” value was 86%.
For the molecule `COc1ccc(-n2ccc(C(F)(F)F)n2)cc1CN(C(=O)c1c(C(F)F)nn(C)c1F)C1CC1` [compound 113], in test [1] (setting [3]), the “Test D rating (% disease control)” value is 99%. For the same molecule, in the test with Septoria tritici (setting [3]), the “Test C rating (% disease control)” value was 100%. For the same molecule, the “Test E rating (% disease control)” value in test [2] (setting [3]) was found to be 97%.
In the case of `Cn1cc(C(=O)N(Cc2ncc(-n3ccc(C(F)(F)F)n3)cc2Br)C2CC2)c(C(F)F)n1` [compound 16], in test [1] (setting [3]), the “Test D rating (% disease control)” value was 67%. Besides, the “Test C rating (% disease control)” value with Septoria tritici (setting [3]) is on record as 100%. In addition, the “Test E rating (% disease control)” value in test [2] (setting [3]) was 56%.
For `Cn1nc(C(F)F)c(C(=O)N(Cc2cccc(-n3ccc(C(F)(F)F)n3)c2Cl)C2CC2)c1F` [compound 136], in that order: 99%, 100% and 87%.
As for `Cn1nc(C(F)F)c(C(=O)N(Cc2ccc(-n3ccc(C(F)(F)F)n3)c(C(F)(F)F)c2)C2CC2)c1F` [compound 95], the “Test D rating (% disease control)” value in test [1] (setting [4]) was 67%. Further, the “Test C rating (% disease control)” value in the test on Septoria tritici (setting [4]) amounted to 87%. Besides, the “Test E rating (% disease control)” value in test [2] (setting [4]) is given as 27%.
For `Cn1nc(C(F)F)c(C(=O)N(Cc2ncc(-n3ccc(C(F)(F)F)n3)cc2C2CC2)C2CC2)c1F` [compound 114], in that order: 100%, 100% and 92%.
Take `C=C(C)c1cc(CN(C(=O)c2c(C(F)F)nn(C)c2F)C2CC2)ccc1-n1ccc(C(F)(F)F)n1` [compound 102]: the “Test D rating (% disease control)” value in test [1] (setting [4]) is given as 98%. Further, the “Test C rating (% disease control)” value in the test on Septoria tritici (setting [4]) was 100%. Moreover, the “Test E rating (% disease control)” value in test [2] (setting [4]) worked out at 13%.
`Cc1ccc(CN(C(=O)c2c(C(F)F)nn(C)c2F)C2CC2)cc1-n1ccc(C(F)(F)F)n1` [compound 87]: the “Test D rating (% disease control)” value in test [1] (setting [3]) worked out at 80%. In the test on Septoria tritici (setting [3]), the “Test C rating (% disease control)” value is recorded as 98%. For the same molecule, the “Test E rating (% disease control)” value in test [2] (setting [3]) was 92%.
`CC(c1ncc(-n2ccc(Br)n2)cc1Cl)N(C(=O)c1c(C(F)F)nn(C)c1F)C1CC1` (racemic) [compound 89]: in test [1] (setting [4]), the “Test D rating (% disease control)” value was determined as 99%. In addition, the “Test C rating (% disease control)” value with Septoria tritici (setting [4]) is 100%. Further, the “Test E rating (% disease control)” value in test [2] (setting [4]) was found to be 81%.
Turning to `CC(C)c1cc(CN(C(=O)c2c(C(F)F)nn(C)c2F)C2CC2)ccc1-n1ccc(C(F)(F)F)n1` [compound 116], the “Test D rating (% disease control)” value in test [1] (setting [4]) came to 98%. Further, the “Test E rating (% disease control)” value in test [2] (setting [4]) is given as 69%.
Regarding `CC(c1cccc(-n2ccc(C(F)(F)F)n2)c1Cl)N(C(=O)c1c(C(F)F)nn(C)c1F)C1CC1` (stereo not shown) [compound 79], in test [1] (setting [3]), the “Test D rating (% disease control)” value worked out at 74%. In the test with Septoria tritici (setting [3]), the “Test C rating (% disease control)” value turned out to be 99%. The “Test E rating (% disease control)” value in test [2] (setting [3]) worked out at 98%.
As for `CC(c1cccc(-n2ccc(C(F)(F)F)n2)c1Cl)N(C(=O)c1cn(C)nc1C(F)F)C1CC1` (stereo not shown) [compound 77], in test [1] (setting [4]), the “Test D rating (% disease control)” value was found to be 9%. Also, in the test with Septoria tritici (setting [4]), the “Test C rating (% disease control)” value came to 82%. Further, the “Test E rating (% disease control)” value in test [2] (setting [4]) was 64%.
Take `Cn1nc(C(F)F)c(C(=O)N(Cc2cccc(-n3ccc(C(F)(F)F)n3)c2C(F)(F)F)C2CC2)c1F` [compound 137]: the “Test D rating (% disease control)” value in test [1] (setting [3]) amounted to 98%. In the test on Septoria tritici (setting [3]), the “Test C rating (% disease control)” value was found to be 94%. In test [2] (setting [3]), the “Test E rating (% disease control)” value was found to be 87%.
Regarding `Cn1nc(C(F)F)c(C(=O)N(Cc2cc(-n3ccc(C(F)(F)F)n3)ncc2Cl)C2CC2)c1F` [compound 92], in test [1] (setting [4]), the “Test D rating (% disease control)” value was found to be 67%. Further, the “Test E rating (% disease control)” value in test [2] (setting [4]) is reported as 0%.
Regarding `Cn1cc(-c2cnc(CN(C(=O)c3c(C(F)F)nn(C)c3F)C3CC3)c(Br)c2)cn1` [compound 110], in test [1] (setting [3]), the “Test D rating (% disease control)” value came to 94%. In addition, the “Test C rating (% disease control)” value with Septoria tritici (setting [3]) was found to be 90%. Also, the “Test E rating (% disease control)” value in test [2] (setting [3]) is on record as 40%.
In the case of `Cc1cc(CN(C(=O)c2c(C(F)F)nn(C)c2F)C2CC2)ccc1-n1ccc(C(F)(F)F)n1` [compound 93], the “Test D rating (% disease control)” value in test [1] (setting [4]) is listed as 99%. The “Test C rating (% disease control)” value in the test on Septoria tritici (setting [4]) was determined as 100%. The “Test E rating (% disease control)” value in test [2] (setting [4]) was 69%.
For the molecule `COc1cc(CN(C(=O)c2c(C(F)F)nn(C)c2F)C2CC2)ccc1-n1ccc(C(F)(F)F)n1` [compound 96], the “Test D rating (% disease control)” value in test [1] (setting [4]) amounted to 99%. Further, the “Test C rating (% disease control)” value in the test with Septoria tritici (setting [4]) came to 100%. For the same molecule, the “Test E rating (% disease control)” value in test [2] (setting [4]) turned out to be 73%.
